These results are taken from patent publication US8669249B2, “Poly (ADP-ribose) polymerase (PARP) inhibitors” (Takeda Pharmaceutical Company Limited, priority 2009, dated 2014).

By IC50 is commonly meant the concentration that gives 50% inhibition. High values mean weaker potency, low ones greater potency.

A value given as a limit tells only on which side of the number the result lay.

For assay [1], the target named is T1, catalytic domain of Human PARP (Homo sapiens, UniProt P09874).
T1 construct: The catalytic domain of Human PARP was cloned and prepared; made in house
T1 sequence (P09874 788-1014 limits assumed): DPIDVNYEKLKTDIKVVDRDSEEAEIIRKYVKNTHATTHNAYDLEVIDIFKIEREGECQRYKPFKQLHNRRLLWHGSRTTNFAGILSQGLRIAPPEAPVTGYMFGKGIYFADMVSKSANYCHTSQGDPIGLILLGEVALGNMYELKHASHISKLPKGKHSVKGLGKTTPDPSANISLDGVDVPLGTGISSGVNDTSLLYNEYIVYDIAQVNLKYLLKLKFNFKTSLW
The assay can be described thus: Biacore surface plasmon resonance affinity assay. The format is binding. The following applies: pKD=-log10 KD, KD in mol/L; Biacore T100, 25° C.; read-out: pKD (converted). The essentials: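 Human PARP catalytic domain amine-coupled to CM5 chip; compounds run as 2-fold series in HBS-P with 1% DMSO, 0.5 mM TCEP, 5 mM MgCl2.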
(SPR reads the build-up and loss of mass on a sensor chip optically.)

A further assay has as its system Jurkat cell line. The assay can be described thus: PARP cellular chemopotentiation assay (MTS, with/without TMZ). Type of assay: cell-based. Particulars: Chemopotentiation factor: ratio of EC50 values of Jurkat cells co-treated without and with 100 μM TMZ; 96 hours. The essentials: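 Jurkat cells, 10,000/well, pre-cultured 24 h, then treated 96 h with serial compound dilutions (0.5% DMSO) with or without 100 μM TMZ. Viability by MTS conversion (OD490), normalized to DMSO controls; EC50 from curve fits, PF50 = EC50 without TMZ / EC50 with TMZ.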

The target in a further assay is T2, PARP (Homo sapiens, UniProt P09874).
T2 construct: purchased Trevigen 4684-096-K HT (kit); 4684-096-01 (PARP enzyme)
T2 sequence (P09874 whole entry): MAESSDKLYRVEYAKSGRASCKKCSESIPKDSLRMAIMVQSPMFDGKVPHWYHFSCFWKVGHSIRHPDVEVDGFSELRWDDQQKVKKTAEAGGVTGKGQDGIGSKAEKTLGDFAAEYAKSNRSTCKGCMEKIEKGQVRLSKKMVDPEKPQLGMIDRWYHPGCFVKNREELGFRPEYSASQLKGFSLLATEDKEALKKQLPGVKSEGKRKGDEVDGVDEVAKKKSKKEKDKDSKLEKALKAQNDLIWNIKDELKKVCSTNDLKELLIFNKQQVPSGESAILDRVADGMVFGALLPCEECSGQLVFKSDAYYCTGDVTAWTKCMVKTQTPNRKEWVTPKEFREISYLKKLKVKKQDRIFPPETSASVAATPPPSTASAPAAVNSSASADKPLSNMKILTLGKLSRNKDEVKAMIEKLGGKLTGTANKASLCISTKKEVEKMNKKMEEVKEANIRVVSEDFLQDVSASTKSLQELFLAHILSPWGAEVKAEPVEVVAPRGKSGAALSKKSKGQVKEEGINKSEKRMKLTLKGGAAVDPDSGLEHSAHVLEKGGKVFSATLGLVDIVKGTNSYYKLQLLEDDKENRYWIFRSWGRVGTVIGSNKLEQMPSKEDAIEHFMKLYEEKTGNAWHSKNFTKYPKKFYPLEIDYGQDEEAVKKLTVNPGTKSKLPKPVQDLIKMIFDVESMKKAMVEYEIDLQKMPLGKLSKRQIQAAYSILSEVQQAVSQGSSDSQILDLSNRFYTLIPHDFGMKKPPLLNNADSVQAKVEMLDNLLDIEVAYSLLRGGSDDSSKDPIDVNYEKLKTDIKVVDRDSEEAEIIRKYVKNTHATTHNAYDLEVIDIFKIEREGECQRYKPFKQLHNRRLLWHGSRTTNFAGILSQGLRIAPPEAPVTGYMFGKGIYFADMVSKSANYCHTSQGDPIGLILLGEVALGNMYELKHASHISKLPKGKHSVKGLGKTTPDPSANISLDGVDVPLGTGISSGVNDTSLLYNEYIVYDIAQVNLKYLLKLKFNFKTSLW
The assay can be described thus: PARP ELISA (ELISA-based colorimetric PARP/Apoptosis Assay kit, Trevigen). The format is biochemical. Particulars: pIC50=-log10 IC50, IC50 in mol/L; inhibition of PARP catalytic activity. The essentials: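 Quenched after 10 min catalysis by aspiration and four PBS/0.1% Triton X-100 washes. Poly(ADP-ribose) detected with mouse anti-PAR monoclonal antibody, goat anti-mouse IgG-HRP and HRP substrate; colorimetric signal proportional to PARP catalytic activity.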
In general terms: In an ELISA, binding on a coated surface is turned into a signal by an enzyme label.

Regarding `COc1cc(CN2CCN(c3ccc(C(=O)NC(C)C)cc3)CC2)cc2c1OC(C)C(=O)N2` (stereo not drawn) [Compound 164, N-Isopropyl-4-(4-((8-methoxy-2-methyl-3-oxo-3,4-dihydro-2H-benzo[b][1,4]oxazin-6-yl)methyl)piperazin-1-yl)benzamide], the Kd in assay [1] is below 31.6 nM. The PF50 entry with Jurkat cell line was “≧10.0”. At PARP, the IC50 is at most 31.6 nM.

As to `CC1Oc2ccc(CN3CCN(c4ccc(C(F)(F)F)cc4)CC3)cc2NC1=O` (stereo not drawn) [Compound 222, 2-Methyl-6-((4-(4-(trifluoromethyl)phenyl)piperazin-1-yl)methyl)-2H-benzo[b][1,4]oxazin-3(4H)-one], the Kd in assay [1] was 12.6 to 100 nM. Besides, the PF50 with Jurkat cell line was 1.0-1.9. The molecule also showed an IC50 on PARP of at least 126 nM.

As to `Cc1cc(CN2CCN(c3ccc(C#N)cc3)CC2)cc2c1OC(C)C(=O)N2` (stereo not drawn) [Compound 253, 4-(4-((2,8-Dimethyl-3-oxo-3,4-dihydro-2H-benzo[b][1,4]oxazin-6-yl)methyl)piperazin-1-yl)benzonitrile], the Kd in assay [1] was at most 10 nM. For the same molecule, in the assay with Jurkat cell line, the PF50 was 2.0-9.9. At PARP, this molecule had an IC50 of at most 31.6 nM.

On to `CC1Oc2c(F)cc(CN3CCN(c4ccc(C#N)cn4)CC3)cc2NC1=O` (stereo not drawn) [Compound 267, 6-(4-((8-fluoro-2-methyl-3-oxo-3,4-dihydro-2H-benzo[b][1,4]oxazin-6-yl)methyl)piperazin-1-yl)nicotinonitrile], for which, in assay [1], the Kd was at most 10 nM. For the same molecule, the PF50 in the assay on Jurkat cell line is 1.0-1.9. This molecule also had an IC50 at PARP of at most 31.6 nM.

In the case of `CCOC(=O)c1ccc(N2CCN(Cc3ccc4c(c3)NC(=O)C(C)O4)CC2)nc1` (stereo not drawn) [Compound 237, Ethyl 6-(4-((2-methyl-3-oxo-3,4-dihydro-2H-benzo[b][1,4]oxazin-6-yl)methyl)piperazin-1-yl)nicotinate], in assay [1], the Kd was at most 10 nM. For the same molecule, the PF50 entry with Jurkat cell line is listed as “≦0.9”. This molecule also had an IC50 on PARP of at least 126 nM.

On to `CCNC(=O)c1ccc(N2CCN(Cc3cc(C)c4c(c3)NC(=O)C(C)O4)CC2)nc1` (stereo not drawn) [Compound 261, 6-(4-((2,8-Dimethyl-3-oxo-3,4-dihydro-2H-benzo[b][1,4]oxazin-6-yl)methyl)piperazin-1-yl)-N-ethylnicotinamide], for which the Kd in assay [1] is at most 10 nM. Besides, the PF50 with Jurkat cell line is given as 2.0-9.9. On PARP, this molecule had an IC50 of 39.8 to 100 nM.

As to `CC1Oc2ccc(CN3Cc4ccc(NC(=O)C5CC5)cc4C3)cc2NC1=O` (stereo not drawn) [Compound 243, N-(2-((2-Methyl-3-oxo-3,4-dihydro-2H-benzo[b][1,4]oxazin-6-yl)methyl)isoindolin-5-yl)cyclopropanecarboxamide], the Kd in assay [1] was 1260 to 10000 nM. Also, the PF50 result in the assay with Jurkat cell line is “≦0.9”. Besides, the IC50 on PARP is at least 126 nM.

On to `CNC(=O)c1ccc(N2CCN(Cc3cc4c(c(OC)c3)OC(C)C(=O)N4)CC2)cc1` (stereo not drawn) [Compound 161, 4-(4-((8-Methoxy-2-methyl-3-oxo-3,4-dihydro-2H-benzo[b][1,4]oxazin-6-yl)methyl)piperazin-1-yl)-N-methylbenzamide], for which the Kd in assay [1] was below 31.6 nM. For the same molecule, the PF50 entry with Jurkat cell line is reported as “≧10.0”. For the same molecule, the IC50 against PARP is at most 31.6 nM.

On to `Cc1cc(CN2CCN(c3ccc(C#N)cn3)CC2)cc2c1OC(C)C(=O)N2` (stereo not drawn) [Compound 254, 6-(4-((2,8-Dimethyl-3-oxo-3,4-dihydro-2H-benzo[b][1,4]oxazin-6-yl)methyl)piperazin-1-yl)nicotinonitrile], for which the Kd in assay [1] was 12.6 to 100 nM. The PF50 in the assay on Jurkat cell line is on record as 2.0-9.9. Besides, the IC50 against PARP was at most 31.6 nM.

Take `CCOC(=O)c1ccc(N2CCN(Cc3cc(C)c4c(c3)NC(=O)C(C)O4)CC2)cc1` (stereo not drawn) [Compound 255, Ethyl 4-(4-((2,8-dimethyl-3-oxo-3,4-dihydro-2H-benzo[b][1,4]oxazin-6-yl)methyl)piperazin-1-yl)benzoate]: in assay [1], the Kd is 12.6 to 100 nM. Besides, the PF50 entry with Jurkat cell line was “≦0.9”. At PARP, this molecule gave an IC50 of 39.8 to 100 nM.
